For 22 compounds, IC50 results are on record in patent US8129396B2, “2-[1H-benzimidazol-2(3H)-ylidene]-2-(pyrimidin-2-yl)acetamides and 2-[benzothiazol-2(3H)-ylidene]-2-(pyrimidin-2-yl)acetamides as kinase inhibitors” (Telik, Inc., priority 2008, dated 2012).

One assay deals with p-H3 in HCT116 cells. As to the kind of experiment: Histone phosphorylation (p-H3) assay. The assay is classed as cell-based. The conditions noted are these: Homo sapiens, HCT-116; HCT116 cells, 4 hr incubation; read-out: p-H3 IC50. The source says:
(§1) The cell lines HL60 (human promyelocytic leukemia) and HCT116 (human colon carcinoma) were obtained from the American Type Culture Collection, Manassas, Va., U.S.A., and HUVEC-2 (human umbilical vein endothelial cells) from BD Biosciences, Bedford, Mass., U.S.A. Aurora A kinase was obtained from Upstate Biotech, Billerica, Mass., U.S.A.; Aurora B kinase from BPS Bioscience, San Diego, Calif., U.S.A.; and VEGFR2 kinase from Cell Signaling Technology, Danvers, Mass., U.S.A. The IMAP FP Screening Express kit was obtained from Molecular Devices, Sunnyvale, Calif., U.S.A.; the CellTiter-Glo assay kit from Promega Corporation, Madison, Wis., U.S.A.; and the Cellular DNA Cytometric Analysis Reagent Kit and BrdU labeling and detection kit from Roche Diagnostics Corporation, Indianapolis, Ind., U.S.A. All products were used in accordance with manufacturer's directions. Kinase inhibition assays and the histone phosphorylation (p-H3) assay were conducted in duplicate, and the cytotoxicity and HUVEC proliferation assays were conducted in triplicate, in each case with solvent control.
Log phase HCT116 cells were seeded at 2.5×10^4 cells/well in a 96-well plate and allowed to attach overnight. The test compounds were diluted in DMSO (8 concentrations with serial 3-fold dilutions) and added to the cells (0.5% DMSO final concentration), and the cells incubated for 4 hr. The cells were then washed three times with cold phosphate-buffered saline (PBS), and lysis buffer was added. After 30 min shaking at 4° C. and centrifugation, the supernatants were transferred to a nitrocellulose membrane by a “dot-blot” apparatus. After washing the wells, the membrane was processed for Western blot. Detection of p-H3 and β-actin was performed on the same membrane with primary rabbit anti-p-H3 and mouse anti-β-actin antibodies followed by secondary goat anti-rabbit IRDye800 and goat anti-mouse AlexaFluor 680 antibodies. The membranes were scanned on an Odyssey scanner.

Assay [1] concerns HCT116 (human colon carcinoma) cells. As to the kind of experiment: HCT116 cytotoxicity assay (CellTiter-Glo). The assay is classed as cell-based. The conditions noted are these: HCT-116, 72 h, cytotoxicity, three days culture, read-out: HCT116 IC50.
Source text: as §1
Log-phase cells were trypsinized, collected by centrifugation, and resuspended in a small volume of fresh medium, and the density of viable cells was determined following Trypan Blue staining. Cells were diluted in fresh media (1×10^4 cells/mL for HL60 and 4×10^4 cells/mL for HCT116 cells), the test compounds (concentrations between 0.1 μM and 200 μM, dissolved in DMSO, 50 μL) added immediately after dilution to achieve a final DMSO concentration of 0.5%, then the suspensions added at 150 μL/well to 96-well plates, and incubated overnight to allow attachment in the case of adherent cells. The cells were cultured for three days (about three doubling times). The cells were then collected by centrifugation, and 100 μL of the culture supernatant was replaced by the CellTiter-Glo reagent. After incubation for 15 minutes at room temperature, the plate was read with a luminometer.
In general terms: ATP-based viability assays read luminescence as a measure of living cells.

A further assay addresses T1, VEGFR2 kinase (Homo sapiens, UniProt P35968).
T1 construct: purchased Cell Signaling Technology
As to the kind of experiment: VEGFR2 kinase assay. The assay is classed as biochemical. The conditions noted are these: 6 μM ATP, 1 mM MnCl2; rounded to 1 significant figure.
Source text: as §1
This assay was performed as for the Aurora A kinase assay, using VEGFR2 kinase, CSKtide as the substrate with 6 μM ATP and 1 mM MnCl2, a kinase reaction time of 1 hr, and dilution of the binding reagent 1:1200 in binding buffer A/binding buffer B (1:1).

Another assay addresses T2, Aurora B kinase (Homo sapiens, UniProt Q96GD4).
T2 construct: purchased BPS Bioscience
As to the kind of experiment: Aurora B kinase assay (IMAP fluorescence polarization). The format is biochemical. The following applies: 10 μM ATP; rounded to 1 significant figure; read-out: Aur-B IC50.
Source text: as §1
(§2) The kinase reaction was initiated by adding 100 nM fluorescein labeled PKAtide and 10 μM adenosine triphosphate (ATP), and allowed to continue for 45 min at room temperature, after which it was stopped by adding binding reagent (1:400 dilution in binding buffer A). After 30 min of room temperature incubation with shaking, the fluorescence polarization was measured on a LJL plate reader. Aurora B kinase assay: performed as for the Aurora A kinase assay, but using Aurora B kinase instead of Aurora A kinase.

In the next assay the target is T3, Aurora A kinase (Homo sapiens, UniProt O14965).
T3 construct: purchased Upstate Biotech
T3 sequence (O14965 1-403): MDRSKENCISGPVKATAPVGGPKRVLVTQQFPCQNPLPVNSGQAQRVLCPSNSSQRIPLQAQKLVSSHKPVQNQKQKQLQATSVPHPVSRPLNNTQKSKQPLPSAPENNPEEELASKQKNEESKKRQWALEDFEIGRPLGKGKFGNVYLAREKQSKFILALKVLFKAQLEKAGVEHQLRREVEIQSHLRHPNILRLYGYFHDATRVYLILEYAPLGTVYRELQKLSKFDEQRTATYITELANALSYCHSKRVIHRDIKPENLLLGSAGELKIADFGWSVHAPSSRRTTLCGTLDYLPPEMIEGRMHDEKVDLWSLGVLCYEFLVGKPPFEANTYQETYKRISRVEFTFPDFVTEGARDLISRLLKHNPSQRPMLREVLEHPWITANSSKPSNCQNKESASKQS
As to the kind of experiment: Aurora A kinase assay (IMAP fluorescence polarization). The format is biochemical. The following applies: 10 μM ATP; rounded to 1 significant figure; read-out: Aur-A IC50.
Source text: as §1
as §2, with “Aurora A kinase assay: the test compounds were diluted in dimethylsulfoxide (DMSO, eight concentrations with serial 3-fold dilutions) and incubated (final DMSO concentration 2.5%) with Aurora A kinase at room temperature for 5 min in kinase reaction buffer with 1 mM dithiothreitol (IMAP FP Screening Express). The” for “The”
In general terms: Fluorescence polarisation rises when a labelled molecule tumbles more slowly, as on binding a larger partner.

Some results are limits rather than exact numbers.

T1 sequence (P35968 20-1356): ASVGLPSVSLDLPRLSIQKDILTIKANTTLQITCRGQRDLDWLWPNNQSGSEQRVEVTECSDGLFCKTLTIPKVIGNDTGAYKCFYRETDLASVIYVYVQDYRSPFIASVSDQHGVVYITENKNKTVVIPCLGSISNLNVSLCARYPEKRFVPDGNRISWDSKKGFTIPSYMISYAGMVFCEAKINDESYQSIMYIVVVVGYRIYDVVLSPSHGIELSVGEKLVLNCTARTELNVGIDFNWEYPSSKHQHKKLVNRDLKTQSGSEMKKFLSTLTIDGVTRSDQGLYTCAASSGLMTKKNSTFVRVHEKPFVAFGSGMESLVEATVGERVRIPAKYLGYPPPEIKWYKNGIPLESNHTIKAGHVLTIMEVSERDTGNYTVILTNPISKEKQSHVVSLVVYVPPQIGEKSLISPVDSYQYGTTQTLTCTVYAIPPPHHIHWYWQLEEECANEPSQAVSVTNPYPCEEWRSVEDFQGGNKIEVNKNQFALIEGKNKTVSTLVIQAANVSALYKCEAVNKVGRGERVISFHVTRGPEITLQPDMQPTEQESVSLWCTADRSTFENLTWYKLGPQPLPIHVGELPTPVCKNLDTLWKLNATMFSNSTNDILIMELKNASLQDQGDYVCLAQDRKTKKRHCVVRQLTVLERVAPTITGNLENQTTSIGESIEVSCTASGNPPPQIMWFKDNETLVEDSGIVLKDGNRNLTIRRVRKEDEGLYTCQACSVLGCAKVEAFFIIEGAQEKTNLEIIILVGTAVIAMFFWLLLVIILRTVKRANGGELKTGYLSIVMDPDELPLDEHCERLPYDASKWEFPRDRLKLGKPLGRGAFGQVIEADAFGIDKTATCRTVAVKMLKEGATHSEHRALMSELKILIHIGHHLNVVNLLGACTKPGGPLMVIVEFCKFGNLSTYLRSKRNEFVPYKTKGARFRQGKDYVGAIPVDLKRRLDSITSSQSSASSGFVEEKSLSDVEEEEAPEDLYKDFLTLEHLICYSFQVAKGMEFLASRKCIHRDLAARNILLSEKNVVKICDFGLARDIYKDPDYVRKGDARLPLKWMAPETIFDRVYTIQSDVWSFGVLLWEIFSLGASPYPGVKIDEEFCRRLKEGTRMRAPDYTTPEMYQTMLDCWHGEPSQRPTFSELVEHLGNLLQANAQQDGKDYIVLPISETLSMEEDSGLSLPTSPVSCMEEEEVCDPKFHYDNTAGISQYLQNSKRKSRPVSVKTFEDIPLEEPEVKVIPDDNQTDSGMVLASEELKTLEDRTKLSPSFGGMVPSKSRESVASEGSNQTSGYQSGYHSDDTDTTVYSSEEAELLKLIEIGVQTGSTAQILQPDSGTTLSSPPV
T2 sequence (Q96GD4 whole entry): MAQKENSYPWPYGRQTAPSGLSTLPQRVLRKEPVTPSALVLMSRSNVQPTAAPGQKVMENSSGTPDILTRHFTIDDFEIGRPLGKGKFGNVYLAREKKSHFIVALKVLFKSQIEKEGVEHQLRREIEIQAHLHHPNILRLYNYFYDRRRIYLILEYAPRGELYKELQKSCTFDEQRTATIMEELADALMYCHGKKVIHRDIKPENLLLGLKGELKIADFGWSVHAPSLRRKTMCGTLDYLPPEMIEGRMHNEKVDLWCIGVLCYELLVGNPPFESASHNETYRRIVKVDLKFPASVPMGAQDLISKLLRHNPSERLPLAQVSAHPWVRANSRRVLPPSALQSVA

In the case of `NCCCNC(=O)c1ccc2c(c1)S/C(=C(/C(N)=O)c1nccc(C(F)(F)F)n1)N2` [Compound 65A], the IC50 (commonly the point on the concentration scale where inhibition reaches its midpoint) in the assay with p-H3 in HCT116 cells came to 400 nM; in assay [1] it was 0.2 µM; against VEGFR2 kinase, 7 nM; on Aurora B kinase it was 20 nM; at Aurora A kinase, 30 nM.

In the case of `CCc1cnc(/C(C(N)=O)=C2/Nc3ccccc3S2)nc1` [Compound 21A], the half-maximal inhibitory concentration (IC50) was found to be 20 µM in assay [1], 1000 nM against VEGFR2 kinase, 100 nM at Aurora B kinase and 200 nM on Aurora A kinase.

For `COC(=O)c1cnc(/C(C(N)=O)=C2/Nc3ccccc3S2)nc1C(F)(F)F` [Compound 3A], the IC50 with p-H3 in HCT116 cells is 20000 nM; in assay [1], 3 µM; at VEGFR2 kinase, 90 nM; on Aurora B kinase, 10 nM; at Aurora A kinase it was 20 nM.

Turning to `NC(=O)/C(=C1/Nc2cc(F)cc(F)c2N1)c1nccc(C(F)(F)F)n1` [Compound 36A], the concentration for half-maximal inhibition (IC50) is greater than 5000 nM in the assay on p-H3 in HCT116 cells; 4 µM in assay [1]; 200 nM against VEGFR2 kinase; 40 nM on Aurora B kinase; 30 nM at Aurora A kinase.

With `NC(=O)/C(=C1\Nc2ccc(C(=O)O)cc2S1)c1nccc(C(F)(F)F)n1` [Compound 27A], the IC50 was 1000 nM in the assay on p-H3 in HCT116 cells; 7 µM in assay [1]; 10 nM against VEGFR2 kinase; 9 nM on Aurora B kinase; 3 nM on Aurora A kinase.

`NCCCNC(=O)c1ccc2c(c1)N/C(=C(/C(N)=O)c1nccc(C(F)(F)F)n1)N2` [Compound 64A]: the concentration for half-maximal inhibition (IC50) in the assay on p-H3 in HCT116 cells worked out at 900 nM; in assay [1] it was 2 µM; against VEGFR2 kinase, 10 nM; on Aurora B kinase, 20 nM; at Aurora A kinase it was 50 nM.

Turning to `NC(=O)/C(=C1\Nc2ccc(C(=O)N(CCO)CCO)cc2N1)c1nccc(C(F)(F)F)n1` [Compound 30A], the 50% inhibitory concentration (IC50) with p-H3 in HCT116 cells turned out to be 1000 nM; on VEGFR2 kinase, 8 nM; on Aurora B kinase, 10 nM; at Aurora A kinase, 10 nM.

For `COC(=O)c1cc(C)nc(/C(C(N)=O)=C2/Nc3ccccc3S2)n1` [Compound 23A], the 50% inhibitory concentration (IC50) stood at 8000 nM in the assay on p-H3 in HCT116 cells; 50 µM in assay [1]; 100 nM against VEGFR2 kinase; 6 nM at Aurora B kinase; 70 nM on Aurora A kinase.

In the case of `NC(=O)C(=C1Nc2ccc([N+](=O)[O-])cc2S1)c1nccc(C(F)(F)F)n1` (single isomer, unassigned) [Compound 26A, 2-[6-nitrobenzothiazol-2(3H)-ylidene]-2-(4-trifluoromethylpyrimidin-2-yl)acetamide], the IC50 in the assay on p-H3 in HCT116 cells is greater than 50000 nM; in assay [1], 20 µM; at VEGFR2 kinase it was 1000 nM; on Aurora B kinase it was 100 nM; on Aurora A kinase it was 200 nM.

Regarding `NC(=O)/C(=C1\Nc2ccc(CO)cc2N1)c1nccc(C(F)(F)F)n1` [Compound 35A], the IC50 in the assay on p-H3 in HCT116 cells worked out at 600 nM; in assay [1] it was 0.2 µM; against VEGFR2 kinase, 20 nM; at Aurora B kinase, 5 nM; at Aurora A kinase, 9 nM.

Regarding `CCN(C(=O)c1ccc2c(c1)N/C(=C(/C(N)=O)c1nccc(C(F)(F)F)n1)N2)c1cccnc1` [Compound 43A], the 50% inhibitory concentration (IC50) at Aurora B kinase was 10 nM; at Aurora A kinase it was 6 nM.

In the case of `Cc1ccnc(C(C(N)=O)=C2Nc3ccccc3N2)n1` [Compound 19A], the IC50 was greater than 50000 nM in the assay on p-H3 in HCT116 cells, 20 µM in assay [1], 30 nM at Aurora B kinase and 400 nM on Aurora A kinase.

With `Cc1cc(C)nc(/C(C(N)=O)=C2/Nc3ccccc3S2)n1` [Compound 22A], the IC50 turned out to be 2000 nM with p-H3 in HCT116 cells; 10 µM in assay [1]; 200 nM against VEGFR2 kinase; 10 nM on Aurora B kinase; 80 nM at Aurora A kinase.

Consider `NC(=O)/C(=C1\Nc2ccc(C(=O)NC3CCNCC3)cc2N1)c1nccc(C(F)(F)F)n1` [Compound 70A], for which the half-maximal inhibitory concentration (IC50) in the assay on p-H3 in HCT116 cells worked out at 1000 nM; in assay [1], 0.6 µM; against VEGFR2 kinase, 4 nM; at Aurora B kinase, 10 nM; on Aurora A kinase, 60 nM.

Turning to `NC(=O)/C(=C1\Nc2ccc(N3CCC(N)C3)cc2S1)c1nccc(C(F)(F)F)n1` (stereo not drawn) [Compound 123A], the half-inhibitory concentration (IC50) in the assay on p-H3 in HCT116 cells was 2000 nM; in assay [1], 4 µM; against VEGFR2 kinase it was 90 nM; on Aurora B kinase, 40 nM; on Aurora A kinase, 100 nM.

In the case of `NC(=O)/C(=C1\Nc2ccc(CCO)cc2N1)c1nccc(C(F)(F)F)n1` [Compound 105A], the half-inhibitory concentration (IC50) in the assay on p-H3 in HCT116 cells was 100 nM; at Aurora B kinase, 7 nM; at Aurora A kinase, 5 nM.

With `NC(=O)/C(=C1\Nc2ccc(CCN3CCOCC3)cc2N1)c1nccc(C(F)(F)F)n1` [Compound 102A], the IC50 stood at 50 nM in the assay with p-H3 in HCT116 cells, 7 nM on Aurora B kinase and 4 nM at Aurora A kinase.

As for `NC(=O)/C(=C1\Nc2ccccc2S1)c1nc(OCCN2CCOCC2)cc(C(F)(F)F)n1` [Compound 14A], the IC50 was greater than 50000 nM with p-H3 in HCT116 cells; 8 µM in assay [1]; 80 nM at VEGFR2 kinase; 30 nM at Aurora B kinase; 50 nM at Aurora A kinase.

With `NC(=O)/C(=C1\Nc2ccccc2S1)c1nc(NCCN2CCOCC2)cc(C(F)(F)F)n1` [Compound 137A], the IC50 with p-H3 in HCT116 cells was 2000 nM; in assay [1], 2 µM; against VEGFR2 kinase, 40 nM; on Aurora B kinase, 30 nM; at Aurora A kinase, 80 nM.

As for `COC(=O)c1cnc(C(C(N)=O)=C2Nc3ccccc3N2)nc1C(F)(F)F` [Compound 4A], the IC50 was greater than 40000 nM with p-H3 in HCT116 cells; 2 µM in assay [1]; 30 nM at VEGFR2 kinase; 10 nM at Aurora B kinase; 4 nM at Aurora A kinase.

Take `Cn1cncc1CCc1ccc2c(c1)S/C(=C(/C(N)=O)c1nccc(C(F)(F)F)n1)N2` [Compound 98A]: the IC50 at Aurora B kinase worked out at 8 nM; at Aurora A kinase, 6 nM.

`Cc1cc(C(=O)O)nc(/C(C(N)=O)=C2/Nc3ccccc3S2)n1` [Compound 24A]: the IC50 is greater than 50 µM in assay [1], 400 nM at VEGFR2 kinase, 1000 nM on Aurora B kinase and 900 nM at Aurora A kinase.
